# According to patent US11434232B2, “ATR inhibitor and application thereof” (WUXI BIOCITY BIOPHARMACEUTICS CO., LTD., priority 2018, dated 2022):
# Test system: tumor cell line LoVo
# Test: In vitro cell viability test (CellTiter-Glo), LoVo cell proliferation inhibition
# Type: cell-based
# Conditions: Homo sapiens
# Protocol: In this experiment, inhibitory effect of the compounds on cell proliferation was investigated by testing influence on cell viability in vitro in tumor cell line LoVo.
# CellTiter-Glo Luminescence Cell Viability Test
# The following protocols were performed according to instruction of PromegaCellTiter-Glo Luminescence cell viability test Kit (Promega-G7573). • (1) Thawing CellTiter-Glo buffer and allowing it to acclimate to room temperature. • (2) Allowing CellTiter-Glo substrate to acclimate to room temperature. • (3) Adding CellTiter-Glo buffer to a bottle of CellTiter-Glo substrate to dissolve the substrate to prepare CellTiter-Glo working solution. • (4) Vortexing slowly to full dissolution. • (5) Removing the cell culture plate and balancing it to room temperature for 30 min. • (6) Adding 50 μL (equivalent to half volume of cell culture medium in each well) of CellTiter-Glo working solution to each well, wrapping the cell plate with aluminum foil to protect from light. • (7) Shaking the culture plate on an orbital shaker for 2 min to induce cell lysis. • (8) Placing the culture plate at room temperature for 10 min to stabilize the luminescence signal. • (9) Detecting the luminescence signal on SpectraMax i3× of Molecular Devices plate reader. Data Analysis
# The following formula was used to calculate the inhibition rate of the test compound (Inhibition rate, IR): IR(%)=(1−(RLU Compound−RLU Blank control)/(RLU Vehicle control−RLU Blank control))*100%.
# The inhibition rates of different concentrations of compounds were calculated in Excel, and GraphPad Prism software was used to make the inhibition curve and calculate relevant parameters, including the minimum inhibition rate, the maximum inhibition rate and IC50.
row,IC50,SMILES
1,760 nM,Cc1nnn(C2CC2)c1-c1cc(N2CCOC[C@H]2C)nc(-c2ccnc3[nH]ccc23)n1 [WX47]
2,820 nM,"C[C@@H]1COCCN1c1cc(C2([S@](C)(=N)=O)CC2)nc(-c2ccnc3[nH]ccc23)n1 [AZD6738, reference compound]"

# Biological target: human ATR kinase (Homo sapiens (Human), UniProt Q13535)
# Test: In vitro evaluation of inhibitory activity on human ATR kinase (HTRF, ATR/ATRIP(h), GST-cMyc-p53 substrate)
# Type: biochemical
# Conditions: 50 nM GST-cMyc-p53, 30 min room temperature
# Protocol: IC50 values were determined to evaluate the inhibitory activity of the tested compounds on human ATR kinase.
# ATR/ATRIP(h) was incubated in assay buffer containing 50 nM GST-cMyc-p53 and Mg/ATP (according to concentration required). The reaction was initiated by adding Mg/ATP mixture. After incubating for 30 min at room temperature, a stop solution containing EDTA to was added to terminate the reaction. Finally, detecting buffer containing d^2-labeled anti-GST monoclonal antibody and europium-labeled anti-phospho Ser15 antibody against phosphorylated p^53 were added. Then the plate was read in time-resolved fluorescence mode and homogeneous time resolution was performed.
# The fluorescence (HTRF) signal was determined according to the formula HTRF=10000×(Em665 nm/Em620 nm).
# IC50 data was analyzed using XLFit version 5.3 (ID Business Solutions). Non-linear regression analysis was used to fit the sigmoidal dose response (variable slope) curve.
# Chain of human ATR kinase (Q13535 whole entry): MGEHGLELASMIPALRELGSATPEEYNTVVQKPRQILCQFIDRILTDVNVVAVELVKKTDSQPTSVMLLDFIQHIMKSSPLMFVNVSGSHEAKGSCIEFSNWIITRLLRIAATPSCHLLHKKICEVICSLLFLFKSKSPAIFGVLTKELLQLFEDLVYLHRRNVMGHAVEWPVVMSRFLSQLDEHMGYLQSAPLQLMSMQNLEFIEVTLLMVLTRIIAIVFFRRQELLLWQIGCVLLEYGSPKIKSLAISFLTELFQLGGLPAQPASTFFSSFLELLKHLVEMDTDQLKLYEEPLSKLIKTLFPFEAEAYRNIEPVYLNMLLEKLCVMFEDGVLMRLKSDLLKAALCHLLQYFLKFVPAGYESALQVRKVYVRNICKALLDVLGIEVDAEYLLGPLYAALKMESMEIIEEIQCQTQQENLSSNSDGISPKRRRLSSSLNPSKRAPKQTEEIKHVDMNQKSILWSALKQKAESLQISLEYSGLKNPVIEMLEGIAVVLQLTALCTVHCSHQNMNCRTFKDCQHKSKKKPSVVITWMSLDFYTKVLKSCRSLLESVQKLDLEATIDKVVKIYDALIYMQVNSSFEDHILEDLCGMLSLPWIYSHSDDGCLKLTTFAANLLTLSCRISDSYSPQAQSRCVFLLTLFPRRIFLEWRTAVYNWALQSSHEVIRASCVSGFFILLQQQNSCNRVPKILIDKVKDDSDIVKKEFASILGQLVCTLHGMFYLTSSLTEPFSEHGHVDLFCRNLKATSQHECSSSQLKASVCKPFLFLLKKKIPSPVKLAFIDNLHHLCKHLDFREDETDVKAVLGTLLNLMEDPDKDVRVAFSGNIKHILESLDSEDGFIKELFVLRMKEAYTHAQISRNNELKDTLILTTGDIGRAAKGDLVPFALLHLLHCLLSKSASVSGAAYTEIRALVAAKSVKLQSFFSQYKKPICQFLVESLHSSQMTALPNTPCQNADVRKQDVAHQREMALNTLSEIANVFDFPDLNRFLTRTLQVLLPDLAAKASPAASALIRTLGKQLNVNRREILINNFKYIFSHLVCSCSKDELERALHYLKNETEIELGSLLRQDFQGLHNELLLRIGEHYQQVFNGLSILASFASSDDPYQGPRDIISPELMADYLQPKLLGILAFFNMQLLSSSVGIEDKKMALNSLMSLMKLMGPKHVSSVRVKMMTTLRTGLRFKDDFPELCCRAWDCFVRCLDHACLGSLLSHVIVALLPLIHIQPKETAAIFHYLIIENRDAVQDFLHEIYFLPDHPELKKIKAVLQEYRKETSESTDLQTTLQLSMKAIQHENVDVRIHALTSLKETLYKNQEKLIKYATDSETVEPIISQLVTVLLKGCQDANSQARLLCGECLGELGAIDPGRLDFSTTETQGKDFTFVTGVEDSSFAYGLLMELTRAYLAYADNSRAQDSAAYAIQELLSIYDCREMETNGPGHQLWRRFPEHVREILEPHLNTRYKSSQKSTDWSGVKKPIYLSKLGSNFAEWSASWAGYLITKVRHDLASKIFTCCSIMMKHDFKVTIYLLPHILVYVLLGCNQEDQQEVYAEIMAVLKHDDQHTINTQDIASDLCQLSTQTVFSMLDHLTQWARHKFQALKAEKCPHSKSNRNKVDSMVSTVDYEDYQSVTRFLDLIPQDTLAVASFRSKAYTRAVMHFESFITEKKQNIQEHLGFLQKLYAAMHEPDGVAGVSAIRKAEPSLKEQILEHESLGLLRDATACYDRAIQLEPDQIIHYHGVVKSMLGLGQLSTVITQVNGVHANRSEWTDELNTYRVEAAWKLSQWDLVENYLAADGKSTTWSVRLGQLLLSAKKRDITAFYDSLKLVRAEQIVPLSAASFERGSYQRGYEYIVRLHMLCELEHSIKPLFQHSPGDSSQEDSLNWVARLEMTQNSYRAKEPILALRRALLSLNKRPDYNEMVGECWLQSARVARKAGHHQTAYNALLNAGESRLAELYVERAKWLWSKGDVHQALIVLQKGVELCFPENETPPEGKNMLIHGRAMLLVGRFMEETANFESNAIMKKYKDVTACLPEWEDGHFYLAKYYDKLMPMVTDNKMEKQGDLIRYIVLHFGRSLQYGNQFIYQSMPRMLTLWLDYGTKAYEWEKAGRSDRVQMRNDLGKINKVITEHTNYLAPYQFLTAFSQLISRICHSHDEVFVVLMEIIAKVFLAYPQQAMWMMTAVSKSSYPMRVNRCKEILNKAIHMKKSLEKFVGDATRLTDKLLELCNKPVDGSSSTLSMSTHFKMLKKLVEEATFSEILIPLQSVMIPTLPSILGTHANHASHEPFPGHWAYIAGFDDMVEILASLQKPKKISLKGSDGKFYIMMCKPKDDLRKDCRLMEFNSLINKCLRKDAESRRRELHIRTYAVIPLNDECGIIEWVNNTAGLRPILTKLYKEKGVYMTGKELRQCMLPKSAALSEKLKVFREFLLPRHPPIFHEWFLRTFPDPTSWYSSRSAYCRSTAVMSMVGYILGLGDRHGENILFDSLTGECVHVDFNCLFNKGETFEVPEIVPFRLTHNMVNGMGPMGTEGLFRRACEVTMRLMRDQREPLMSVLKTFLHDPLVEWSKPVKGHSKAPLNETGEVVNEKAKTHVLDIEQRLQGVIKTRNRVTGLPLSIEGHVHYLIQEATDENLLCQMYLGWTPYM
# Chain of human ATR kinase (Q8WXE1 whole entry partner): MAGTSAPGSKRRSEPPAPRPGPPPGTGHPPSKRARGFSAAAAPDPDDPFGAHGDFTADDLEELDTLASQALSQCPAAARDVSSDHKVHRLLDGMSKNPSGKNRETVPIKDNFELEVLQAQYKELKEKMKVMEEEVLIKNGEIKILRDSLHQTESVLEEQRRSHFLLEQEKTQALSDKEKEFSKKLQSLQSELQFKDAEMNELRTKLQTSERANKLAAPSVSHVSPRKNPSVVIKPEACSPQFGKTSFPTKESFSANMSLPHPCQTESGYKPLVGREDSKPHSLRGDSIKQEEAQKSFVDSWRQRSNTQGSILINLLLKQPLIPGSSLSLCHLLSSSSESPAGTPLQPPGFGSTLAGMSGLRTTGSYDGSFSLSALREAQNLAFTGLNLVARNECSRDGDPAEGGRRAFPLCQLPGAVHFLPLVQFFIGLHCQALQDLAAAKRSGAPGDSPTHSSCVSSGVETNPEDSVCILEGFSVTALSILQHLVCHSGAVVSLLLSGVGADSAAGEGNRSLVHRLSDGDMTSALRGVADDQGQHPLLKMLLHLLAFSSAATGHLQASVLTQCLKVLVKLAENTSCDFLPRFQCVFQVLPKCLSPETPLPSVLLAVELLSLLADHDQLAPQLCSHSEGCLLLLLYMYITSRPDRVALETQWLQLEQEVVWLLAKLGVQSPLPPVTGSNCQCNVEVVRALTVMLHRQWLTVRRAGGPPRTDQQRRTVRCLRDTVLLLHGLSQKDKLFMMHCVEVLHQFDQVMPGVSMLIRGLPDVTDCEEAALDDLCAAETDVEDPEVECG
row,IC50,SMILES
1,12 nM,Cc1cnn(C)c1-c1cc(N2CCOC[C@H]2C)nc(-c2ccnc3[nH]ccc23)n1 [WX17]
2,64 nM,Cc1nnn(C2CC2)c1-c1cc(N2CCOC[C@H]2C)nc(-c2ccnc3[nH]ccc23)n1 [WX47]
3,198 nM,C[C@@H]1COCCN1c1cc(-c2ccnn2C)cc(-c2ccnc3[nH]ccc23)n1 [WX33]
4,115 nM,Cc1n[nH]c(C)c1-c1cc(N2CCOC[C@H]2C)nc(-c2ccnc3[nH]ccc23)n1 [WX23]
5,97 nM,Cc1cc(-c2cc(N3CCOC[C@H]3C)nc(-c3ccnc4[nH]ccc34)n2)n(C)n1 [WX16]
6,72 nM,Cc1cc(-c2cc(N3CCOC[C@H]3C)nc(-c3cccc4[nH]ccc34)n2)n(C)n1 [WX03]
7,123 nM,C[C@@H]1COCCN1c1cc(-c2cn(C)nc2C(F)(F)F)nc(-c2ccnc3[nH]ccc23)n1 [WX27]
8,19 nM,Cc1nnn(C)c1-c1cc(N2CCOC[C@H]2C)nc(-c2cccc3[nH]ccc23)n1 [WX35]
9,24 nM,Cc1cnn(C)c1-c1cc(N2CCOC[C@H]2C)nc(-c2cccc3[nH]ccc23)n1 [WX13]
10,35 nM,Cc1n[nH]c(C)c1-c1cc(-c2ccnc3[nH]ccc23)nc(N2CCOC[C@H]2C)c1 [WX32]
11,26 nM,Cc1nnn(C2CC2)c1-c1cc(N2CCOC[C@H]2C)nc(-c2cc(CO)cc3[nH]ccc23)n1 [WX49]
12,14 nM,Cc1nnn(C)c1-c1cc(N2CCOC[C@H]2C)nc(-c2cc(F)cc3[nH]ccc23)n1 [WX36]
13,123 nM,Cc1c(-c2cc(N3CCOC[C@H]3C)nc(-c3ccnc4[nH]ccc34)n2)cnn1C [WX26]
14,65 nM,COCc1cnn(C)c1-c1cc(N2CCOC[C@H]2C)nc(-c2ccnc3[nH]ccc23)n1 [WX43]
15,20 nM,Cc1cc(-c2nc(-c3c(C)nnn3C)cc(N3CCOC[C@H]3C)n2)c2cc[nH]c2c1 [WX52]
16,75 nM,Cc1cnn(C)c1-c1cc(-c2ccnc3[nH]ccc23)nc(N2CCOC[C@H]2C)n1 [WX07]
17,35 nM,Cc1noc(C)c1-c1cc(-c2ccnc3[nH]ccc23)nc(N2CCOC[C@H]2C)c1 [WX30]
18,18 nM,Cc1nn(C)c(C)c1-c1cc(N2CCOC[C@H]2C)nc(-c2ccnc3[nH]ccc23)n1 [WX24]
19,69 nM,Cc1nnn(C)c1-c1cc(N2CCOC[C@H]2C)nc(-c2ccnc3[nH]ccc23)n1 [WX34]
20,39 nM,Cc1cnn(C)c1-c1cc(-c2ccnc3[nH]ccc23)nc(N2CCOC[C@H]2C)c1 [WX31]
21,105 nM,Cc1nnc(C)n1-c1cc(-c2ccnc3[nH]ccc23)nc(N2CCOC[C@H]2C)c1 [WX48]
22,96 nM,C[C@@H]1COCCN1c1cc(-c2cnn(C)c2CO)nc(-c2ccnc3[nH]ccc23)n1 [WX29]
23,42 nM,Cc1nnn(C)c1-c1cc(-c2ccnc3[nH]ccc23)nc(N2CCOC[C@H]2C)c1 [WX39]
24,92 nM,Cc1nn(C)cc1-c1cc(N2CCOC[C@H]2C)nc(-c2ccnc3[nH]ccc23)n1 [WX25]
25,65 nM,Cc1ncn(C)c1-c1cc(N2CCOC[C@H]2C)nc(-c2ccnc3[nH]ccc23)n1 [WX44]
26,15 nM,COc1cc(C)c(-c2cc(N3CCOC[C@H]3C)nc(-c3ccnc4[nH]ccc34)n2)cn1 [WX40]
27,47 nM,Cc1noc(C)c1-c1cc(N2CCOC[C@H]2C)nc(-c2ccnc3[nH]ccc23)n1 [WX28]
28,16 nM,Cc1nnn(C)c1-c1cc(N2CCOC[C@H]2C)nc(-c2cc(CO)cc3[nH]ccc23)n1 [WX37]
29,83 nM,CCn1nccc1-c1cc(N2CCOC[C@H]2C)nc(-c2ccnc3[nH]ccc23)n1 [WX18]
30,78 nM,Cc1nc(F)ccc1-c1cc(N2CCOC[C@H]2C)nc(-c2ccnc3[nH]ccc23)n1 [WX41]

# The next lines start with the molecule.
row,SMILES,IC50
1,Cc1cnn(C)c1-c1cc(N2CCOC[C@H]2C)nc(-c2cc(C(=O)O)cc3[nH]ccc23)n1 [WX53],83 nM
2,CCn1nccc1-c1cc(-c2ccnc3[nH]ccc23)nc(N2CCOC[C@H]2C)n1 [WX08],126 nM
3,C[C@@H]1COCCN1c1nc(-c2cc(F)cc3[nH]ccc23)cc(-c2ccnn2C)n1 [WX09],369 nM
4,Cc1cc(-c2cc(N3CCOC[C@H]3C)nc(-c3cc(F)cc4[nH]ccc34)n2)n(C)n1 [WX20],69 nM
5,C[C@@H]1COCCN1c1cc(-c2ccnn2C)nc(-c2cc(F)cc3[nH]ccc23)n1 [WX19],81 nM
6,CCn1nccc1-c1cc(N2CCOC[C@H]2C)nc(-c2cccc3[nH]ccc23)n1 [WX14],50 nM
7,Cc1nnn(C)c1-c1cc(-c2cc(CO)cc3[nH]ccc23)nc(N2CCOC[C@H]2C)c1 [WX38],78 nM
8,C[C@@H]1COCCN1c1cc(-c2cccc3[nH]ccc23)nc(-c2ccnn2C)c1 [WX01],119 nM
9,Cc1cnn(C)c1-c1cc(-c2cccc3[nH]ccc23)nc(N2CCOC[C@H]2C)n1 [WX12],41 nM
10,CCn1nccc1-c1cc(-c2cccc3[nH]ccc23)nc(N2CCOC[C@H]2C)n1 [WX05],53 nM
11,Cc1nnc(C)n1-c1cc(-c2cc(F)cc3[nH]ccc23)nc(N2CCOC[C@H]2C)c1 [WX54],27 nM
12,Cc1noc(C)c1-c1cc(N2CCOC[C@H]2C)nc(-c2cc(CO)cc3[nH]ccc23)n1 [WX51],32 nM
13,Cc1nnc(C)n1-c1cc(-c2cccc3[nH]ccc23)nc(N2CCOC[C@H]2C)n1 [WX55],20 nM
14,CCn1nccc1-c1cc(N2CCOC[C@H]2C)nc(-c2cc(F)cc3[nH]ccc23)n1 [WX22],65 nM
15,C[C@@H]1COCCN1c1nc(-c2ccnc3[nH]ccc23)cc(-c2ccnn2C)n1 [WX06],245 nM
16,C[C@@H]1COCCN1c1cc(-c2ccnn2C)nc(-c2cccc3[nH]ccc23)n1 [WX02],72 nM
17,C[C@@H]1COCCN1c1nc(-c2cccc3[nH]ccc23)cc(-c2ccnn2C)n1 [WX04],91 nM
18,Cc1nnc(C)n1-c1cc(-c2cccc3[nH]ccc23)nc(N2CCOC[C@H]2C)c1 [WX57],28 nM
19,Cc1cnn(C)c1-c1cc(-c2cc(F)cc3[nH]ccc23)nc(N2CCOC[C@H]2C)n1 [WX10],80 nM
20,Cc1nnc(C)n1-c1cc(-c2cc(F)cc3[nH]ccc23)nc(N2CCOC[C@H]2C)n1 [WX56],46 nM
21,Cc1cnn(C)c1-c1cc(N2CCOC[C@H]2C)nc(-c2cc(F)cc3[nH]ccc23)n1 [WX21],27 nM
22,CCn1nccc1-c1cc(-c2cc(F)cc3[nH]ccc23)nc(N2CCOC[C@H]2C)n1 [WX11],191 nM

# Test system: not listed separately
# Test: Pharmacokinetic properties in vivo in female Balb/c Nude mice
# Set-up: species or system mouse
# Conditions: mouse, plasma, 1 mg/kg IV
# Protocol: Experimental method: The purpose of this study was to determine the pharmacokinetic parameters of the compounds and calculate the oral bioavailability in female Balb/c Nude mice.
# The project involved 6 female Balb/c Nude mice. 3 mice were administered intravenously at a dose of 1 mg/kg, and plasma samples were collected at 0 h (before administration) and 0.0833, 0.25, 0.5, 1, 2, 4, 6, 8 and 24 h after administration, other 3 mice were given by oral gavage at a dose of 10 mg/kg or 25 mg/kg, and plasma samples were collected at 0 h (before dosing) and 0.5, 1, 2, 3, 4, 6, 8, 24 h after administration. Then LC/MS/MS analysis was performed for the collected samples and data was collected. The collected analysis data was calculated for relevant pharmacokinetic parameters with Phoenix WinNonlin 6.2.1 software.
AUC(0-t),clearance,half-life,SMILES
0.787 µM·h,53.9 mL/min/kg,1.22 h,Cc1nnn(C)c1-c1cc(N2CCOC[C@H]2C)nc(-c2ccnc3[nH]ccc23)n1 [WX34]

# Same assay, conditions: mouse, plasma, 1 mg/kg IV, drug concentration at 0 min
row,C0,SMILES
1,1260 nM,Cc1nnn(C)c1-c1cc(N2CCOC[C@H]2C)nc(-c2ccnc3[nH]ccc23)n1 [WX34]

# Same assay, conditions: mouse, plasma, 1 mg/kg IV, read-out: Vdss
row,Vd,SMILES
1,3.72 L/kg,Cc1nnn(C)c1-c1cc(N2CCOC[C@H]2C)nc(-c2ccnc3[nH]ccc23)n1 [WX34]

# Same assay, conditions: mouse, plasma, 10 mg/kg oral gavage
AUC(0-t),Cmax,half-life,SMILES
5.68 µM·h,2860 nM,1.16 h,Cc1nnn(C)c1-c1cc(N2CCOC[C@H]2C)nc(-c2ccnc3[nH]ccc23)n1 [WX34]

# Same assay, conditions: oral bioavailability, 10 mg/kg oral vs 1 mg/kg IV
row,F,SMILES
1,71.7%,Cc1nnn(C)c1-c1cc(N2CCOC[C@H]2C)nc(-c2ccnc3[nH]ccc23)n1 [WX34]
